{
  "source": "patent US8247596B2",
  "about": "(Sumitomo Chemical Company, Limited, priority 2007, dated 2012)",
  "assay_type_in_all_cases": "in vivo",
  "key": {"Musca domestica": {"system": "Musca domestica", "assay": "Test Example 4: filter paper/sucrose bait test on Musca domestica", "settings": "24 h, read-out: pest death rate", "procedure": "A formulation of any one of the present compounds (1), (4), (5), (7), (11), (12), (13), (18t), (18c), (19), (20), (21), (22), (24), (25t), (25c), (26t), (26c), (27), (29), (30), (31), (32), (33), (34), (35), (40), (41), (43), (49), (50) and (55) obtained according to Formulation Example 36 was diluted with water so that the active ingredient concentration was 500 ppm to obtain a test solution.\n(§1) A filter paper having a diameter of 5.5 cm was spread on the bottom of a polyethylene cup having a diameter of 5.5 cm and 0.7 ml of the test solution was added dropwise onto the filter paper. As a bait 30 mg of sucrose was uniformly placed on the filter paper. Into the polyethylene cup, 10 female imagoes of Musca domestica were released and the cup was sealed with a lid. After 24 hours, the number of surviving Musca domestica was examined and the death rate of the pest was calculated."}, "Blattalla germanica": {"system": "Blattalla germanica", "assay": "Test Example 5: filter paper/sucrose bait test on Blattalla germanica", "settings": "144 h, read-out: pest death rate", "procedure": "A formulation of any one of the present compounds (4), (5), (7), (12), (13), (18t), (18c), (22), (25t), (25c), (26t), (26c), (29), (30), (31), (32), (33), (34), (40), (41), (43), (49) and (55) obtained according to Formulation Example 36 was diluted with water so that the active ingredient concentration was 500 ppm to obtain a test solution.\nas §1, with “2 male” for “10 female”, “Blattalla germanica” for “Musca domestica”, “6 days,” for “24 hours,”"}, "Culex pipiens pallens": {"system": "Culex pipiens pallens", "assay": "Test Example 6: larvae of Culex pipiens pallens in treated water", "settings": "24 h, read-out: pest death rate", "procedure": "A formulation of any one of the present compounds (7), (11), (12), (13), (17), (18t), (18c), (22), (24), (25t), (25c), (26t), (26c), (27), (29), (33), (34), (35), (36), (38), (40), (41), (43), (47), (49), (50) and (55) obtained according to Formulation Example 36 was diluted with water so that the active ingredient concentration was 500 ppm to obtain a test solution.\nTo 100 mL of ion-exchanged water, 0.7 ml of the test solution was added (active ingredient concentration: 3.5 ppm). Into the solution, 20 last-instar larvae of Culex pipiens pallens were released. One day after, the number of surviving Culex pipiens pallens was examined and the death rate of the pest was calculated."}, "[1]": {"system": "Haemaphysalis longicornis", "assay": "Test Example 7: treated filter paper pouch test on ticks", "settings": "Haemaphysalis longicornis, 48 h; filter paper treated with 100 mg/m^2; non-blood-sucking nymphal ticks, 10 ticks/group; two days after; read-out: pest death rate", "procedure": "Five milligrams of any one of the present compounds (4), (7), (18t), (22), (25t), (26t), (29), (30), (31), (32), (33), (34), (35), (40), (41), (42), (43), (44) and (55) was dissolved in 10 mL of acetone. One milliliter of the acetone solution was uniformly applied on one side of a filter paper (TOYO No. 2; 5×10 cm), so that the filter paper having a surface area of 50 cm^2 was treated with 100 mg/m^2 of the present compound. After drying, the filter paper was folded in two and its edges were clipped to make a pouch. Test ticks (non-blood-sucking nymphal ticks, Haemaphysalis longicornis, 10 ticks/group) were put into the pouch, and the pouch was sealed with clips. Two days after, the number of surviving ticks was examined and the death rate was calculated."}},
  "data": [
    {"smiles": "CON=C1CCC(C(C#N)S(=O)(=O)CCC(F)(F)F)CC1", "note": "(centres unmarked) [present compound (33), 2-[4-(methoxyimino)cyclohexyl]-2-(3,3,3-trifluoropropylsulfonyl)acetonitrile]", "values": [
      {"measurement": "pest or weed control at 500 ppm", "setting": "Musca domestica", "result": "≥ 90", "unit": "%"},
      {"measurement": "pest or weed control at 500 ppm", "setting": "Blattalla germanica", "result": 100, "unit": "%"},
      {"measurement": "pest or weed control at 3.5 ppm", "setting": "Culex pipiens pallens", "result": "≥ 95", "unit": "%"},
      {"measurement": "pest or weed control at 100 mg/m2", "setting": "[1]", "result": 90, "unit": "%"}
    ]},
    {"smiles": "N#CC(C1CCC(F)(F)CC1)S(=O)(=O)CCC(F)(F)F", "note": "(centres unmarked) [present compound (29), 2-(4,4-difluorocyclohexyl)-2-(3,3,3-trifluoropropylsulfonyl)acetonitrile]", "values": [
      {"measurement": "pest or weed control at 500 ppm", "setting": "Musca domestica", "result": "≥ 90", "unit": "%"},
      {"measurement": "pest or weed control at 500 ppm", "setting": "Blattalla germanica", "result": 100, "unit": "%"},
      {"measurement": "pest or weed control at 3.5 ppm", "setting": "Culex pipiens pallens", "result": "≥ 95", "unit": "%"},
      {"measurement": "pest or weed control at 100 mg/m2", "setting": "[1]", "result": 90, "unit": "%"}
    ]},
    {"smiles": "CCC(C#N)(C1CCC(=NOC)CC1)S(=O)(=O)CCC(F)(F)F", "note": "(centres unmarked) [present compound (41), 2-[4-(methoxyimino)cyclohexyl]-2-(3,3,3-trifluoropropylsulfonyl)butyronitrile]", "values": [
      {"measurement": "pest or weed control at 500 ppm", "setting": "Musca domestica", "result": "≥ 90", "unit": "%"},
      {"measurement": "pest or weed control at 500 ppm", "setting": "Blattalla germanica", "result": 100, "unit": "%"},
      {"measurement": "pest or weed control at 3.5 ppm", "setting": "Culex pipiens pallens", "result": "≥ 95", "unit": "%"},
      {"measurement": "pest or weed control at 100 mg/m2", "setting": "[1]", "result": 90, "unit": "%"}
    ]},
    {"smiles": "C#CC1(F)CCC(CS(=O)(=O)CCC(F)(F)F)CC1", "note": "(centres unmarked) [present compound (7)]", "values": [
      {"measurement": "pest or weed control at 500 ppm", "setting": "Musca domestica", "result": "≥ 90", "unit": "%"},
      {"measurement": "pest or weed control at 500 ppm", "setting": "Blattalla germanica", "result": 100, "unit": "%"},
      {"measurement": "pest or weed control at 3.5 ppm", "setting": "Culex pipiens pallens", "result": "≥ 95", "unit": "%"},
      {"measurement": "pest or weed control at 100 mg/m2", "setting": "[1]", "result": 90, "unit": "%"}
    ]},
    {"smiles": "C#CC1=CCC(CS(=O)(=O)CCC(F)(F)F)CC1", "note": "(centres unmarked)", "values": [
      {"measurement": "pest or weed control at 500 ppm", "setting": "Musca domestica", "result": "≥ 90", "unit": "%"},
      {"measurement": "pest or weed control at 500 ppm", "setting": "Blattalla germanica", "result": 100, "unit": "%"},
      {"measurement": "pest or weed control at 3.5 ppm", "setting": "Culex pipiens pallens", "result": "≥ 95", "unit": "%"},
      {"measurement": "pest or weed control at 100 mg/m2", "setting": "[1]", "result": 90, "unit": "%"}
    ]},
    {"smiles": "CON=C1CCC(C(C#N)S(=O)(=O)CCC(F)(F)C(F)(F)F)CC1", "note": "(centres unmarked) [present compound (55), 2-[4-(methoxyimino)cyclohexyl]-2-(3,3,4,4,4-pentafluorobutylsulfonyl)acetonitrile]", "values": [
      {"measurement": "pest or weed control at 500 ppm", "setting": "Musca domestica", "result": "≥ 90", "unit": "%"},
      {"measurement": "pest or weed control at 500 ppm", "setting": "Blattalla germanica", "result": 100, "unit": "%"},
      {"measurement": "pest or weed control at 3.5 ppm", "setting": "Culex pipiens pallens", "result": "≥ 95", "unit": "%"},
      {"measurement": "pest or weed control at 100 mg/m2", "setting": "[1]", "result": 90, "unit": "%"}
    ]},
    {"smiles": "CON=C1CCC(C(C)(C#N)S(=O)(=O)CCC(F)(F)F)CC1", "note": "(centres unmarked) [present compound (40), 2-[4-(methoxyimino)cyclohexyl]-2-(3,3,3-trifluoropropylsulfonyl)propionitrile]", "values": [
      {"measurement": "pest or weed control at 500 ppm", "setting": "Musca domestica", "result": "≥ 90", "unit": "%"},
      {"measurement": "pest or weed control at 500 ppm", "setting": "Blattalla germanica", "result": 100, "unit": "%"},
      {"measurement": "pest or weed control at 3.5 ppm", "setting": "Culex pipiens pallens", "result": "≥ 95", "unit": "%"},
      {"measurement": "pest or weed control at 100 mg/m2", "setting": "[1]", "result": 90, "unit": "%"}
    ]},
    {"smiles": "C#CC1CCC(CS(=O)(=O)CCC(F)(F)F)CC1", "note": "(centres unmarked) [present compound (18t), 1-ethynyl-4-(3,3,3-trifluoropropylsulfonylmethyl)cyclohexane]", "values": [
      {"measurement": "pest or weed control at 500 ppm", "setting": "Musca domestica", "result": "≥ 90", "unit": "%"},
      {"measurement": "pest or weed control at 500 ppm", "setting": "Blattalla germanica", "result": 100, "unit": "%"},
      {"measurement": "pest or weed control at 3.5 ppm", "setting": "Culex pipiens pallens", "result": "≥ 95", "unit": "%"},
      {"measurement": "pest or weed control at 100 mg/m2", "setting": "[1]", "result": 90, "unit": "%"}
    ]}
  ]
}
